{"source": "patent US6916845B2", "about": "“Method for prevention and treatment of male and female sexual dysfunction” (priority 1999, dated 2005)", "key": {"[1]": {"tested_on": "rabbit's CC smooth muscle", "experiment": "Relaxation of PHE pre-contracted corpus cavernosum smooth muscle strips in organ chamber", "type": "cell-based", "settings": "for effect of pre-treatment on the relaxation effects of icariin: pre-treatment before icariin", "procedure": "Sixty adults male New Zealand white rabbits(Weight: 2.5-3.0 kg) were used. Rabbits were anesthesia with sodium pentobarbital(50 mg/kg), penis was removed and corpus cavernous tissue were carefully isolated and made into 2×2×6 mm muscle strips for isometric tension was measured in organ chamber in vitro study with polygraph(MP 100 WS:Biopac systems, USA). CC muscle strip was fixed in 10 ml organ chamber containing Tyrode solution and continuously supplied with mixed gas(95% O2 and 5% CO2) and keep temperature at 37° C. The initial resting tensions of muscle strips were set at 2 g and tissue was allowed to equilibrate for 1.5-3.0 hours. Sub-maximal contractile responses to phenylepherine(PHE 5×10^-6 M) were observed and optimal isometric tension was determined. To evaluate the relaxation effects of icariin (the other components magnoflorine, querectin, epimedin A, B and C as the controls) on CC muscle strips, investigated the relaxation effects of different dosage of icariin on muscle strips pre-contracted by PHE. And to investigate the pharmaceutical action mechanism, the effects of […] Nω-nitric-L-arginine(L-NNA), guanylate cyclase antagonist methylene blue and pyrogallol, soluble guanylate cyclase inhibitor 1H-[1,2,4]oxadiazolo[4,3,-a]quinoxalin-1-one (ODQ) on the relaxation effects of icariin on CC."}, "patients": {"tested_on": "patients", "settings": "patients on antihypertensive agent; cited from earlier work"}, "adult male rat": {"tested_on": "adult male rat", "experiment": "Intracavernosal press (ICP) changes after intracavernosal administration and cavernous nerve electrical stimulation", "type": "in vivo", "settings": "for Inhibiting Effect on Icariin induced Relaxation of CC. (ICP changes): 10 minutes after Icariin 100 μl 10^−4M", "procedure": "Twenty-four male, adult Wistar rats(weight:300-350 g) were used. After anesthetization, the left carotid artery was cannulated to monitor mean arterial pressure (MAP). Bipolar electrodes were positioned on the cavernous nerve (CN); the right cavernous body was cannulated with 26 G needle connected with Biopack MP100 to monitor ICP changes. After intracavemosal administration of 100 μl different concentration Icariin or Reserpine (10^−8M to 10^−4M) respectively, the CN was electrically stimulated (ES) 10 minutes later and ICP and MAP were monitored. In order to investigate the possible mechanism of the effect of icariin on ICP changes, 100 μl different concentration guanylate cyclase inhibitor ODQ (10^−8M-10^−4M) were intracavemosal administrated 10 minutes after Icariin (100 μl 10^−4M) administration into CC, and then the ICP was measured during erection, which was, followed the ES."}, "[2]": {"tested_on": "cGMP formation in rabbit corpus cavernosum", "experiment": "cGMP formation in corpus cavernosum of penis stimulated with SNP, radioimmunoassay", "type": "cell-based", "settings": "in the presence of SNP"}, "[3]": {"tested_on": "cGMP formation in clitoris CC of female rabbits", "experiment": "cGMP formation in CC of clitoris stimulated with SNP, radioimmunoassay", "type": "cell-based, rabbit"}, "[4]": {"tested_on": "PDE4 isolated from human liver tissue", "experiment": "Inhibition of cAMP specific PDE4, two-step radioisotope procedure", "type": "biochemical", "procedure": "PDE5 and PDE4 were isolated from human platelets and liver tissue using a Pharmacia FPLC system and Mono Q column. The cyclic nucleotide PDE5/PDE4 activities in FPLC fractions were determined using a modification of the two-step radioisotope procedure ([^3H]GMP/[^3H]AMP)."}}}
{"smiles": "COc1ccc2c(c1O)-c1c(O)c(OC)cc3c1[C@H](C2)[N+](C)(C)CC3", "note": "[magnoflorine]", "values": [{"measurement": "relaxation effects on CC", "setting": "[1]", "result": "no significant relaxation effects"}]}
{"smiles": "COc1ccc(-c2oc3c(CC=C(C)C)c(OC4OC(CO)C(O)C(O)C4O)cc(O)c3c(=O)c2OC2OC(C)C(O)C(O)C2OC2OC(CO)C(O)C(O)C2O)cc1", "note": "(stereo not drawn) [epimedin A]", "values": [{"measurement": "relaxation effects on CC", "setting": "[1]", "result": "no significant relaxation effects"}]}
{"smiles": "NC(=NCCC[C@H](N)C(=O)O)N[N+](=O)[O-]", "note": "[L-NNA, Nω-nitric-L-arginine]", "values": [{"measurement": "icariin induced relaxation of CC smooth muscle strips after pre-treatment with the named inhibitor", "setting": "[1]; icariin 10^−4M", "result": "15.68 ± 1.15", "unit": "%"}, {"measurement": "icariin induced relaxation of CC smooth muscle strips after pre-treatment with the named inhibitor", "setting": "[1]; icariin 10^−5M", "result": "3.23 ± 0.89", "unit": "%"}, {"measurement": "icariin induced relaxation of CC smooth muscle strips after pre-treatment with the named inhibitor", "setting": "[1]; icariin 10^−6M", "result": "0.82 ± 0.58", "unit": "%"}, {"measurement": "effect of pre-treatment on the relaxation effects of icariin", "setting": "[1]", "result": "significantly inhibited"}]}
{"smiles": "C[C@](N)(Cc1ccc(O)c(O)c1)C(=O)O", "note": "[alpha-methyldopa]", "values": [{"measurement": "sexual dysfunction associated with the agent, % of patients", "setting": "patients", "result": "20-30%"}]}
{"smiles": "O=c1c(O)c(-c2ccc(O)c(O)c2)oc2cc(O)cc(O)c12", "note": "[querectin]", "values": [{"measurement": "relaxation effects on CC", "setting": "[1]", "result": "no significant relaxation effects"}]}
{"smiles": "O=c1onc2cnc3ccccc3n12", "note": "[ODQ, 1H-[1,2,4]oxadiazolo[4,3,-a]quinoxalin-1-one]", "values": [{"measurement": "Inhibiting Effect on Icariin induced Relaxation of CC. (ICP changes)", "setting": "adult male rat; ODQ 10^−4M", "result": "80.24 ± 8.05", "unit": "%"}, {"measurement": "Inhibiting Effect on Icariin induced Relaxation of CC. (ICP changes)", "setting": "adult male rat; ODQ 10^−5M", "result": "58.45 ± 6.00", "unit": "%"}, {"measurement": "Inhibiting Effect on Icariin induced Relaxation of CC. (ICP changes)", "setting": "adult male rat; ODQ 10^−6M", "result": "23.09 ± 4.29", "unit": "%"}, {"measurement": "Inhibiting Effect on Icariin induced Relaxation of CC. (ICP changes)", "setting": "adult male rat; ODQ 10^−7M", "result": "17.16 ± 1.77", "unit": "%"}, {"measurement": "icariin induced relaxation of CC smooth muscle strips after pre-treatment with the named inhibitor", "setting": "[1]; icariin 10^−4M", "result": "10.45 ± 1.08", "unit": "%"}, {"measurement": "icariin induced relaxation of CC smooth muscle strips after pre-treatment with the named inhibitor", "setting": "[1]; icariin 10^−5M", "result": "1.85 ± 0.35", "unit": "%"}, {"measurement": "icariin induced relaxation of CC smooth muscle strips after pre-treatment with the named inhibitor", "setting": "[1]; icariin 10^−6M", "result": "0.42 ± 0.48", "unit": "%"}, {"measurement": "effect of pre-treatment on the relaxation effects of icariin", "setting": "[1]", "result": "significantly inhibited"}]}
{"smiles": "COc1ccc(-c2oc3c(CC=C(C)C)c(O[C@@H]4O[C@H](CO)[C@@H](O)[C@H](O)[C@H]4O)cc(O)c3c(=O)c2O[C@@H]2O[C@@H](C)[C@H](O)[C@@H](O)[C@H]2O[C@@H]2OC[C@@H](O)[C@H](O)[C@H]2O)cc1", "note": "[epimedin B]", "values": [{"measurement": "relaxation effects on CC", "setting": "[1]", "result": "no significant relaxation effects"}]}
{"smiles": "NS(=O)(=O)c1cc2c(cc1C(F)(F)F)NC(Cc1ccccc1)NS2(=O)=O", "note": "(stereo not drawn) [bendrofluazide]", "values": [{"measurement": "sexual dysfunction associated with the agent, % of patients", "setting": "patients", "result": 36, "unit": "%"}]}
{"smiles": "COc1ccc(Cc2nccc3cc(OC)c(OC)cc23)cc1OC", "note": "[Papaverine, papaverine]", "values": [{"measurement": "cGMP concentration changes", "setting": "[2]; 10^−3M", "result": "11.43 ± 65", "unit": "fmol/mg/min"}, {"measurement": "cGMP concentration changes", "setting": "[2]; 10^−4M", "result": "9.82 ± 2.16", "unit": "fmol/mg/min"}, {"measurement": "cGMP concentration changes", "setting": "[2]; 10^−5M", "result": "8.92 ± 1.87", "unit": "fmol/mg/min"}, {"measurement": "cGMP concentration changes", "setting": "[2]; 10^−6M", "result": "8.66 ± 2.07", "unit": "fmol/mg/min"}]}
{"smiles": "Oc1cccc(O)c1O", "note": "[Pyrogallol, pyrogallol]", "values": [{"measurement": "icariin induced relaxation of CC smooth muscle strips after pre-treatment with the named inhibitor", "setting": "[1]; icariin 10^−4M", "result": "15.68 ± 1.15", "unit": "%"}, {"measurement": "icariin induced relaxation of CC smooth muscle strips after pre-treatment with the named inhibitor", "setting": "[1]; icariin 10^−5M", "result": "3.45 ± 0.73", "unit": "%"}, {"measurement": "icariin induced relaxation of CC smooth muscle strips after pre-treatment with the named inhibitor", "setting": "[1]; icariin 10^−6M", "result": "0.85 ± 0.45", "unit": "%"}, {"measurement": "effect of pre-treatment on the relaxation effects of icariin", "setting": "[1]", "result": "significantly inhibited"}]}
{"smiles": "Clc1cccc(Cl)c1NC1=NCCN1", "note": "[clodidine]", "values": [{"measurement": "sexual dysfunction associated with the agent, % of patients", "setting": "patients", "result": 41, "unit": "%"}]}
{"smiles": "CCCc1nn(C)c2c(=O)[nH]c(-c3cc(S(=O)(=O)N4CCN(C)CC4)ccc3OCC)nc12", "note": "[Sildenafil]", "values": [{"measurement": "cGMP concentration in clitoris CC", "setting": "[3]", "result": "significantly increased"}, {"measurement": "EC50", "setting": "[3]; Oryctolagus cuniculus, stimulated with SNP, read-out: EC50 (cGMP formation, CC of clitoris)", "result": 0.31, "unit": "µM"}, {"measurement": "IC50", "setting": "[4]", "result": 14.6, "unit": "µM"}, {"measurement": "cGMP concentration changes", "setting": "[2]; 10^−3M", "result": "12.35 ± 2.56", "unit": "fmol/mg/min"}, {"measurement": "cGMP concentration changes", "setting": "[2]; 10^−4M", "result": "11.98 ± 2.39", "unit": "fmol/mg/min"}, {"measurement": "cGMP concentration changes", "setting": "[2]; 10^−5M", "result": "12.69 ± 2.24", "unit": "fmol/mg/min"}, {"measurement": "cGMP concentration changes", "setting": "[2]; 10^−6M", "result": "10.65 ± 2.28", "unit": "fmol/mg/min"}, {"measurement": "EC50", "setting": "[2]; Oryctolagus cuniculus, read-out: EC50 (cGMP formation, CC of penis)", "result": 0.31, "unit": "µM"}]}
{"smiles": "COc1ccc(-c2oc3c(CC=C(C)C)c(O[C@@H]4O[C@H](CO)[C@@H](O)[C@H](O)[C@H]4O)cc(O)c3c(=O)c2O[C@@H]2O[C@@H](C)[C@H](O)[C@@H](O)[C@H]2O[C@@H]2O[C@@H](C)[C@H](O)[C@@H](O)[C@H]2O)cc1", "note": "[epimedin C]", "values": [{"measurement": "relaxation effects on CC", "setting": "[1]", "result": "no significant relaxation effects"}]}
{"smiles": "COC(=O)[C@H]1[C@H]2C[C@@H]3c4[nH]c5cc(OC)ccc5c4CCN3C[C@H]2C[C@@H](OC(=O)c2cc(OC)c(OC)c(OC)c2)[C@@H]1OC", "note": "[Reserpine, reserpine]", "values": [{"measurement": "Inhibiting effects on ICP", "setting": "adult male rat; Reserpine 10^−4M intracavernosal", "result": 59.63, "unit": "%"}, {"measurement": "Inhibiting effects on ICP", "setting": "adult male rat; Reserpine 10^−5M intracavernosal", "result": 33.34, "unit": "%"}, {"measurement": "Inhibiting effects on ICP", "setting": "adult male rat; Reserpine 10^−6M intracavernosal", "result": 17.39, "unit": "%"}, {"measurement": "Inhibiting effects on ICP", "setting": "adult male rat; Reserpine 10^−7M intracavernosal", "result": 4.81, "unit": "%"}, {"measurement": "sexual dysfunction associated with the agent, % of patients", "setting": "patients", "result": "30-40%"}]}
{"smiles": "CN(C)c1ccc2nc3ccc(=[N+](C)C)cc-3sc2c1", "note": "[Methylene blue, methylene blue]", "values": [{"measurement": "icariin induced relaxation of CC smooth muscle strips after pre-treatment with the named inhibitor", "setting": "[1]; icariin 10^−4M", "result": "13.45 ± 1.12", "unit": "%"}, {"measurement": "icariin induced relaxation of CC smooth muscle strips after pre-treatment with the named inhibitor", "setting": "[1]; icariin 10^−5M", "result": "2.02 ± 0.45", "unit": "%"}, {"measurement": "icariin induced relaxation of CC smooth muscle strips after pre-treatment with the named inhibitor", "setting": "[1]; icariin 10^−6M", "result": "0.52 ± 0.68", "unit": "%"}, {"measurement": "effect of pre-treatment on the relaxation effects of icariin", "setting": "[1]", "result": "significantly inhibited"}]}
